The results in this text go back to patent publication US12459967B2, “Modulators of 5′-nucleotidase, ecto and the use thereof” (Arcus Biosciences, Inc., priority 2016, dated 2025).

The structures appear in SMILES notation. Where only a bound is given, the exact number is not on record here.

For the experiment, the target named is T1, human CD73 (Homo sapiens, UniProt P21589).
T1 construct: host or cells: CHO-K1 (suspension pool CHO-CD73)
T1 sequence (P21589 27-549): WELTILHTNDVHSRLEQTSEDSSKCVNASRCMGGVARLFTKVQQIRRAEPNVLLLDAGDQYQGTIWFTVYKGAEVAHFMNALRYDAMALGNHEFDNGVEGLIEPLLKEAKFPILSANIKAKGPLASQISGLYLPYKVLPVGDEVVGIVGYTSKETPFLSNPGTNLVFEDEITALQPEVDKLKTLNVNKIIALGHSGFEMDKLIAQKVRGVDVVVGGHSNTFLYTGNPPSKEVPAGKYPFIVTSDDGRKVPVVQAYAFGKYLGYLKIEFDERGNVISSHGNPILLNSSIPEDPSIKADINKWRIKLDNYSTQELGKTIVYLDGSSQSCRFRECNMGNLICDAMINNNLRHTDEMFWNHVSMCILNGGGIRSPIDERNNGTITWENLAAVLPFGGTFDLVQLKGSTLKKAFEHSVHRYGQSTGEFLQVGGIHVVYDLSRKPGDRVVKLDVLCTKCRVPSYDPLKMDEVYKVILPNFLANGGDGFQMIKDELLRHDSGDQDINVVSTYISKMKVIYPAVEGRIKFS
As to the kind of experiment: Inhibition of ecto-5′-nucleotidase (CD73) activity in CHO-CD73 cells, phosphate colorimetric readout. The conditions noted are these: CHO-K1 cells stably transfected with human CD73, 2500 cells per well, 25 μM AMP substrate, 50 minutes incubation at 37° C.; read-out: Potency: CD73 IC50. The class given is cell-based. As to the method:
Inhibition of Ecto-5′-nucleotidase Activity. Compounds were evaluated to determine their ecto-5′-nucleotidase (CD73) inhibitory activity. Briefly, CHO-K1 cells stably transfected with human CD73 were generated by LakePharma (Belmont, CA) using molecular cloning of human CD73 (http://www.uniprot.org/uniprot/P21589) and mammalian transient expression vector (P21589.1). After antibiotic selection in CD OptiCHO cell media (Invitrogen, Catalog #12681-011) containing 5 μg/mL Puromycin and 200 μg/mL Hygromycin B, a suspension pool of CHO-CD73 cells was collected and frozen in 7.5% DMSO in cell media without antibiotics.
On the day of the experiment, one vial of CHO-CD73 cells was thawed and suspended in assay media which consisted of 20 mM HEPES, pH 7.4, 137 mM NaCl, 5.4 mM KCl, 1.3 mM CaCl2), 4.2 mM NaHCO3 and 0.1% glucose. To test the ability of compounds to inhibit CD73 enzymatic activity, 2 μL of 500 μM of compounds dissolved in DMSO (50×) were added to a 96-well polystyrene plate containing 58 μL of assay buffer. Next, 20 μL of CHO-CD73 cells in assay buffer were added to assay plate followed by 20 μL of 125 μM AMP (Adenosine 5′-monophosphate monohydrate) in assay buffer. Final assay conditions consisted of 2500 cells per well in 2% DMSO and 25 μM of AMP substrate. After 50 minutes of incubation (37° C. and 5% CO2) and centrifugation at 225×g for 5 mins, 80 μL of supernatant were transferred to a 96-well Spectra Plate (PerkinElmer, cat #6005640) which was pre-dispensed with 20 μL of PiColorLock Gold colorimetric assay reagents (Thermo, cat #30 300 30). The amount of inorganic phosphate was determined by reading the absorbance at 620 nm on an EnVision Multilabel Plate Reader (PerkinElmer). Enzymatic activity of CD73 was based on the amount of phosphate generated. Percentage of activity was calculated based on DMSO and no cells control wells. IC50 values of compounds were determined by four parameter non-linear regression fitting of percentage of activity in GraphPad Prism software.
In the case of `O=P(O)(O)CP(=O)(O)OC[C@H]1O[C@@H](n2cnc3c(NCc4cc(C(F)(F)F)cc(C(F)(F)F)c4)ncnc32)[C@H](O)[C@@H]1O`, the IC50 (in general, the concentration that gives 50% inhibition) was below 100 nM. Regarding `O=P(O)(O)CP(=O)(O)OC[C@H]1O[C@@H](n2cnc3c(NCc4ccc(Br)cc4)ncnc32)[C@H](O)[C@@H]1O`, the IC50 was below 100 nM. The same measure for `CC(C)(C)c1ccc(CNc2ncnc3c2ncn3[C@@H]2O[C@H](COP(=O)(O)CP(=O)(O)O)[C@@H](O)[C@H]2O)cc1`: below 100 nM; for `O=P(O)(O)CP(=O)(O)OC[C@H]1O[C@@H](n2cnc3c(NCc4ccc(-c5ccccc5)cc4)ncnc32)[C@H](O)[C@@H]1O`: below 100 nM. On to `O=P(O)(O)CP(=O)(O)OC[C@H]1O[C@@H](n2cnc3c(NCc4ccc(C(F)(F)F)cc4)ncnc32)[C@H](O)[C@@H]1O`, for which the concentration for half-maximal inhibition (IC50) was below 100 nM. Regarding `COP(=O)(CP(=O)(O)O)OC[C@H]1O[C@@H](n2cnc3c(N(C)C4CCCC4)nc(Cl)nc32)[C@@H](F)[C@@H]1O` (some centres unmarked), the IC50 is below 100 nM. As to `O=P(O)(O)CP(=O)(O)OC[C@H]1O[C@@H](n2ncc3c(NC4CCCC4)nc(Cl)nc32)[C@H](O)[C@@H]1O`, the IC50 was below 100 nM.

For the molecule `O=P(O)(O)CP(=O)(O)OC[C@H]1O[C@@H](n2ncc3c(NCc4ccccc4)nc(Cl)nc32)[C@H](O)[C@@H]1O`, the IC50 was below 100 nM.

On to `C[C@H](Nc1nc(Cl)nc2c1cnn2[C@@H]1O[C@H](COP(=O)(O)CP(=O)(O)O)[C@@H](O)[C@H]1O)c1ccccc1`, for which the IC50 was below 100 nM. For the molecule `C[C@@H](Nc1nc(Cl)nc2c1cnn2[C@@H]1O[C@H](COP(=O)(O)CP(=O)(O)O)[C@@H](O)[C@H]1O)c1ccccc1`, the 50% inhibitory concentration (IC50) is below 100 nM. The same measure for `O=P(O)(O)CP(=O)(O)OC[C@H]1O[C@@H](n2ncc3c(NCc4ccc(Cl)cc4)nc(Cl)nc32)[C@H](O)[C@@H]1O`: below 100 nM; for `C[C@H](Nc1nc(Cl)nc2c1cnn2[C@@H]1O[C@H](COP(=O)(O)CP(=O)(O)O)[C@@H](O)[C@H]1O)c1ccccc1F`: below 100 nM. On to `C[C@@H](Nc1nc(Cl)nc2c1cnn2[C@@H]1O[C@H](COP(=O)(O)CP(=O)(O)O)[C@@H](O)[C@H]1O)c1ccccc1F`, for which the IC50 is below 100 nM. On to `C[C@H](Nc1nc(Cl)nc2c1cnn2[C@@H]1O[C@H](COP(=O)(O)CP(=O)(O)O)[C@@H](O)[C@H]1O)c1cccc(F)c1`, for which the IC50 was below 100 nM.

In the case of `C[C@@H](Nc1nc(Cl)nc2c1cnn2[C@@H]1O[C@H](COP(=O)(O)CP(=O)(O)O)[C@@H](O)[C@H]1O)c1cccc(F)c1`, the IC50 is below 100 nM. Consider `C[C@H](Nc1nc(Cl)nc2c1cnn2[C@@H]1O[C@H](COP(=O)(O)CP(=O)(O)O)[C@@H](O)[C@H]1O)c1ccc(F)cc1`, for which the IC50 is below 100 nM.

For the molecule `C[C@@H](Nc1nc(Cl)nc2c1cnn2[C@@H]1O[C@H](COP(=O)(O)CP(=O)(O)O)[C@@H](O)[C@H]1O)c1ccc(F)cc1`, the 50% inhibitory concentration (IC50) is below 100 nM. For the molecule `O=P(O)(O)CP(=O)(O)OC[C@H]1O[C@@H](n2ncc3c(NCc4ccccc4Cl)nc(Cl)nc32)[C@H](O)[C@@H]1O`, the IC50 is below 100 nM. `CN(Cc1ccccc1Cl)c1nc(Cl)nc2c1cnn2[C@@H]1O[C@H](COP(=O)(O)CP(=O)(O)O)[C@@H](O)[C@H]1O`: the IC50 was below 100 nM. `O=P(O)(O)CP(=O)(O)OC[C@H]1O[C@@H](n2ncc3c(NCCc4ccccc4Cl)nc(Cl)nc32)[C@H](O)[C@@H]1O`: the concentration for half-maximal inhibition (IC50) is below 100 nM. With `CN(Cc1ccccc1)c1nc(Cl)nc2c1cnn2[C@@H]1O[C@H](COP(=O)(O)CP(=O)(O)O)[C@@H](O)[C@H]1O`, the 50% inhibitory concentration (IC50) was below 100 nM.

`CN(c1nc(Cl)nc2c1cnn2[C@@H]1O[C@H](COP(=O)(O)CP(=O)(O)O)[C@@H](O)[C@H]1O)C1CCCC1`: the IC50 was below 100 nM.

In the case of `CNc1nc(Cl)nc2c1cnn2[C@@H]1O[C@H](COP(=O)(O)CP(=O)(O)O)[C@@H](O)[C@H]1O`, the IC50 is below 100 nM. Regarding `O=P(O)(O)CP(=O)(O)OC[C@H]1O[C@@H](n2ncc3c(N[C@H](c4ccccc4)C(F)(F)F)nc(Cl)nc32)[C@H](O)[C@@H]1O`, the half-inhibitory concentration (IC50) is below 100 nM. The same measure for `O=P(O)(O)CP(=O)(O)OC[C@H]1O[C@@H](n2ncc3c(N[C@H]4CCOC4)nc(Cl)nc32)[C@H](O)[C@@H]1O`: below 100 nM; for `CC(C)OC(=O)OCOP(=O)(O)CP(=O)(OCOC(=O)OC(C)C)OC[C@H]1O[C@@H](n2ncc3c(NC4CCCC4)nc(Cl)nc32)[C@H](O)[C@@H]1O` (some centres unmarked): above 1000 nM. The same measure for `CC(C)OC(=O)OCOP(=O)(O)CP(=O)(OCOC(=O)OC(C)C)OC[C@H]1O[C@@H](n2ncc3c(N[C@@H](C)c4ccccc4)nc(Cl)nc32)[C@H](O)[C@@H]1O` (some centres unmarked): above 1000 nM; for `O=P(O)(O)CP(=O)(O)OC[C@H]1O[C@@H](n2ncc3c(NCc4ccccc4)nc(Cl)nc32)[C@@H](F)[C@@H]1O`: below 100 nM; for `C[C@H](Nc1nc(Cl)nc2c1cnn2[C@@H]1O[C@H](COP(=O)(O)CP(=O)(O)O)[C@@H](O)[C@@H]1F)c1ccccc1`: below 100 nM. Take `C[C@@H](Nc1nc(Cl)nc2c1cnn2[C@@H]1O[C@H](COP(=O)(O)CP(=O)(O)O)[C@@H](O)[C@@H]1F)c1ccccc1`: the IC50 is below 100 nM. For `C[C@H](Nc1nc(Cl)nc2c1cnn2[C@@H]1O[C@H](COP(=O)(O)CP(=O)(O)O)[C@@H](O)[C@@H]1F)c1ccccc1F`, the IC50 is below 100 nM. The same measure for `C[C@@H](Nc1nc(Cl)nc2c1cnn2[C@@H]1O[C@H](COP(=O)(O)CP(=O)(O)O)[C@@H](O)[C@@H]1F)c1ccccc1F`: below 100 nM; for `C[C@H](Nc1nc(Cl)nc2c1cnn2[C@@H]1O[C@H](COP(=O)(O)CP(=O)(O)O)[C@@H](O)[C@@H]1F)c1cccc(F)c1`: below 100 nM; for `C[C@@H](Nc1nc(Cl)nc2c1cnn2[C@@H]1O[C@H](COP(=O)(O)CP(=O)(O)O)[C@@H](O)[C@@H]1F)c1cccc(F)c1`: below 100 nM. On to `C[C@H](Nc1nc(Cl)nc2c1cnn2[C@@H]1O[C@H](COP(=O)(O)CP(=O)(O)O)[C@@H](O)[C@@H]1F)c1ccc(F)cc1`, for which the IC50 was below 100 nM. The same measure for `C[C@@H](Nc1nc(Cl)nc2c1cnn2[C@@H]1O[C@H](COP(=O)(O)CP(=O)(O)O)[C@@H](O)[C@@H]1F)c1ccc(F)cc1`: below 100 nM; for `O=P(O)(O)CP(=O)(O)OC[C@H]1O[C@@H](n2cnc3c(NC4CCCC4)cc(Cl)nc32)[C@H](O)[C@@H]1O`: below 100 nM; for `O=P(O)(O)CP(=O)(O)OC[C@H]1O[C@@H](n2cnc3c(NC4CCCC4)cc(Cl)nc32)[C@@H](F)[C@@H]1O`: below 100 nM.

Regarding `O=P(O)(O)CP(=O)(O)OC[C@H]1O[C@@H](n2ncc3c(NC4CCCC4)cc(Cl)nc32)[C@H](O)[C@@H]1O`, the IC50 is below 100 nM. For the molecule `C[C@H](Nc1cc(Cl)nc2c1cnn2[C@@H]1O[C@H](COP(=O)(O)CP(=O)(O)O)[C@@H](O)[C@H]1O)c1ccccc1`, the IC50 is below 100 nM.

In the case of `C[C@@H](Nc1cc(Cl)nc2c1cnn2[C@@H]1O[C@H](COP(=O)(O)CP(=O)(O)O)[C@@H](O)[C@H]1O)c1ccccc1`, the IC50 is below 100 nM.

For the molecule `C[C@H](Nc1cc(Cl)nc2c1cnn2[C@@H]1O[C@H](COP(=O)(O)CP(=O)(O)O)[C@@H](O)[C@H]1O)c1ccc(F)cc1`, the half-inhibitory concentration (IC50) is below 100 nM. The same measure for `O=P(O)(O)CP(=O)(O)OC[C@H]1O[C@@H](n2ncc3c(NC4CCCC4)cc(Cl)nc32)[C@@H](F)[C@@H]1O`: below 100 nM; for `C[C@H](Nc1cc(Cl)nc2c1cnn2[C@@H]1O[C@H](COP(=O)(O)CP(=O)(O)O)[C@@H](O)[C@@H]1F)c1ccccc1`: below 100 nM.

In the case of `C[C@@H](Nc1cc(Cl)nc2c1cnn2[C@@H]1O[C@H](COP(=O)(O)CP(=O)(O)O)[C@@H](O)[C@@H]1F)c1ccccc1`, the IC50 was below 100 nM. `C[C@H](Nc1nc(Cl)nc2c1ccn2[C@@H]1O[C@H](COP(=O)(O)CP(=O)(O)O)[C@@H](O)[C@H]1O)c1ccccc1F`: the IC50 was below 100 nM. On to `C[C@H](Nc1nc(Cl)nc2c1ccn2[C@@H]1O[C@H](COP(=O)(O)CP(=O)(O)O)[C@@H](O)[C@H]1O)c1cccc(F)c1`, for which the IC50 is below 100 nM.
